{"source": "patent US4879311A", "about": "“Derivatives of benzoyloxyacetic acid, and preparation and formulations thereof for therapeutic use” (Inverni della Beffa S.p.A., priority 1987, dated 1989)", "assay": "pH of aqueous solution", "assay_type": "physicochemical", "settings": "1% aqueous solution", "note": "Where a name gives a salt, the structure may show the parent alone.", "data": [{"smiles": "Cc1ccc(Cl)c(Nc2ccccc2C(=O)OCC(=O)O)c1Cl", "note": "[Ic, d,l-lysine salt (Ic) of 2-[(2,6-dichloro-3-methylphenyl)-amino]benzoyloxyacetic acid]", "values": [{"measurement": "pH in 1% aqueous solution", "result": 6.75}]}]}
